Assay results: patent US10494355B2, “Oxadiazole amine derivative compounds as histone deacetylase 6 inhibitor, and the pharmaceutical composition comprising the same” (Chong Kun Dang Pharmaceutical Corp., priority 2015, dated 2019)

Tests used:
human recombinant HDAC6 = biological target: T1, human recombinant HDAC6 (Homo sapiens, UniProt Q9UBN7); assay: HDAC6 enzyme activity inhibition assay (HDAC Fluorimetric Drug Discovery Kit); type: biochemical; settings: 30° C. 60 minutes
T1 construct: purchased Calbiochem 382180
T1 sequence (Q9UBN7 1-1215): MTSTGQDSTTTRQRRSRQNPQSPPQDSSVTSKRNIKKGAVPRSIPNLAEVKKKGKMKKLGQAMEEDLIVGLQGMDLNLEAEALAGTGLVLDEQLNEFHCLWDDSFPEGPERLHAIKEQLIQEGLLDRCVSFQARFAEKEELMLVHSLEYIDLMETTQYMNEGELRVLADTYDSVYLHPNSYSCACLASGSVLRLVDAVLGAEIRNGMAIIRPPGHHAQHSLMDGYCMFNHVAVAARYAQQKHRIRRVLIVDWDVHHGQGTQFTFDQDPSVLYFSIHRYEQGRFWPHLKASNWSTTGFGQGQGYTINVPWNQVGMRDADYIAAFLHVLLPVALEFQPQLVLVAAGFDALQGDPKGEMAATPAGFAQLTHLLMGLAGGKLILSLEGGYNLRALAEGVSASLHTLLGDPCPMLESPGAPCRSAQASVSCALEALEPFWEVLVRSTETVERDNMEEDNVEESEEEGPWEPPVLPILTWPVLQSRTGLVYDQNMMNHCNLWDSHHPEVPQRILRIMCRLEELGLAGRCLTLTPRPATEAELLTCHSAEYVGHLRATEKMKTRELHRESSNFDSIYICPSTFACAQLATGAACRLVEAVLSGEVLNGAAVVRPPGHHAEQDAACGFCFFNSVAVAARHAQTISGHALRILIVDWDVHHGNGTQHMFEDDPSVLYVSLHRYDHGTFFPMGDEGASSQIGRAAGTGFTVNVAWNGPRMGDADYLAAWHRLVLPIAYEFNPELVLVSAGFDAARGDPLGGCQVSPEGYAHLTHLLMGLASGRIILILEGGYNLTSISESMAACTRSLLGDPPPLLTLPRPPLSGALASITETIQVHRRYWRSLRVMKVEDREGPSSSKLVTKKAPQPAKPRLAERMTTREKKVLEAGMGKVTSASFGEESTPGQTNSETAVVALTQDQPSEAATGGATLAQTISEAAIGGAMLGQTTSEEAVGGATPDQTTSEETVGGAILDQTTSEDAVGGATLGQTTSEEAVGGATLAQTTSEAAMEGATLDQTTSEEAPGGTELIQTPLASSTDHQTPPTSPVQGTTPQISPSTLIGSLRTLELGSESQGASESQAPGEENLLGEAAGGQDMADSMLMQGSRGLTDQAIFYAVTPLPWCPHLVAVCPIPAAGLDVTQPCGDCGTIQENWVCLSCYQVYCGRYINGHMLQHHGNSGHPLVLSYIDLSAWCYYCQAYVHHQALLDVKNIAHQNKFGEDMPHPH
Outline: (§1)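 5-fold compound dilutions + 0.3 μg enzyme + 10 μM Fluor de Lys-SIRT1 substrate, 60 min, 30° C; Developer II 30 min; fluorescence Ex 360/Em 460; IC50 by curve fit.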

human recombinant HDAC1 = biological target: T2, human recombinant HDAC1 (Homo sapiens, UniProt Q13547); assay: HDAC1 enzyme activity inhibition assay (HDAC Fluorimetric Drug Discovery Kit); type: biochemical; settings: human recombinant HDAC1, 10 μM substrate, 30° C. 60 minutes
T2 construct: purchased Enzo Life Science BML-SE456
Outline: as §1

T2 sequence (Q13547 whole entry): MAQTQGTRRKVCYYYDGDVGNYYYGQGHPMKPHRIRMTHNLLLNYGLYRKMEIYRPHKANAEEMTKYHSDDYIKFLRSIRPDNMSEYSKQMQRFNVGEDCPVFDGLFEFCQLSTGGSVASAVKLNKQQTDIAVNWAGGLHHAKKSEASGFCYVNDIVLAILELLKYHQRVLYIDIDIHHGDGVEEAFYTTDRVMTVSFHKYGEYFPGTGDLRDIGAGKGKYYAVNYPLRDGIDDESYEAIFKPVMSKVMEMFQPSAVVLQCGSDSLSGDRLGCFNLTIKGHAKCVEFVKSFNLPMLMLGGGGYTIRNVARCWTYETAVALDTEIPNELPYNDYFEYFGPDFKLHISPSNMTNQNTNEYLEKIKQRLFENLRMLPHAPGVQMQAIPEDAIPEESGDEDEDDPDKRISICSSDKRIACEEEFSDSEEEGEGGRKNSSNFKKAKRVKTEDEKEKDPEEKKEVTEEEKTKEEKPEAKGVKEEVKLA

SMILES	IC50 (human recombinant HDAC6)	IC50 (human recombinant HDAC1)
Fc1ccc(C2(Nc3ncc(-c4nnc(C(F)F)o4)cn3)CC2)cc1 [Compound 1711, 5-(5-(difluoromethyl)-1,3,4-oxadiazol-2-yl)-N-(1-(4-fluorophenyl)cyclopropyl)pyrimidin-2-amine]	26 nM	> 10 µM
FC(F)c1nnc(-c2cnc(NC3(c4ccccc4)CCC3)nc2)o1 [Compound 1559, 5-(5-(difluoromethyl)-1,3,4-oxadiazol-2-yl)-N-(1-phenylcyclobutyl)pyrimidin-2-amine]	30 nM	> 10 µM
FC(F)(F)c1nnc(-c2cnc(NC3(c4ccc(Cl)cc4)CCC3)nc2)o1 [Compound 1618, N-(1-(4-chlorophenyl)cyclobutyl)-5-(5-(trifluoromethyl)-1,3,4-oxadiazol-2-yl)pyrimidin-2-amine]	267 nM	> 10 µM
FC(F)c1nnc(-c2cnc(NC3(c4ccc(OC(F)(F)F)cc4)CCC3)nc2)o1 [Compound 1822, 5-(5-(difluoromethyl)-1,3,4-oxadiazol-2-yl)-N-(1-(4-(trifluoromethoxy)phenyl)cyclobutyl)pyrimidin-2-amine]	282 nM	> 10 µM
Fc1ccccc1C1(Nc2ncc(-c3nnc(C(F)(F)F)o3)cn2)CCC1 [Compound 1610, N-(1-(2-fluorophenyl)cyclobutyl)-5-(5-(trifluoromethyl)-1,3,4-oxadiazol-2-yl)pyrimidin-2-amine]	151 nM	> 10 µM
